Data from EP2875809B1, “Product based on an association of glucomannan and inositol” (Dicofarm Spa, priority 2013, dated 2015).

Experiments:
[1] = OGTT (oral glucose tolerance test): insulin levels; format: in vivo; design: unit not given beside the values; settings: OGTT 75 g, women with PCOS, treatment twice a day for 3 months
Procedure: (§1) In order to evaluate the effectiveness of this new combination of inositol and glucomannan on blood glucose levels and insulin at baseline and after glucose load curve, it was evaluated the effect in 20 women affected by insulin resistance PCOS and compared with what determined in 2 groups of 10 women each, treated with myo-inositol and glucomannan individually administered.
(§2) The women were divided into 3 groups, each group received the treatment according to the following scheme: • Group A: 20 women treated with 1.5 g of myo-inositol + 2 g of glucomannan, twicea day for 3 months, administered half an hour before meals; • Group B: 10 women treated with 1.5 g myo-inositol, twice a day for 3 months, administered half an hour before meals; • Group C: 10 women treated with a dose of 2 g of glucomannan, twice a day for 3 months, adminisered with main meals.
(§3) In order to determine blood glucose and insulin levels in all samples, OGTT (oral glucose tolerance test) was performed in all women in the early follicular phase of the spontaneous period, or after a progestin-induced, period before starting the treatment and after three months of treatment ([…]) .

[2] = OGTT (oral glucose tolerance test): blood glucose levels; format: in vivo; settings: OGTT 75 g, women with PCOS, treatment twice a day for 3 months
Procedure: as §1, §2, §3

[3] = Menstrual cycle trend (frequency of the period); format: in vivo; settings: before the treatment, same group of women with PCOS
Excerpt: as §2
(§4) In addition to the assessment of blood glucose and insulin levels during OGTT, the menstrual cycle trend has been evaluated in all the women: the 3rd month of treatment at the 22nd day of the menstrual cycle a progesterone dosage was performed and, after 3 months of treatment, an evaluation of acne, hirsutism and body mass index was performed.

[4] = Plasma progesterone at the 22nd day of the period; format: in vivo, women
Excerpt: as §2, §4

[5] = Body mass index evaluation; format: in vivo, women
Excerpt: as §2, §4

[6] = before treatment, same group of women with PCOS

For `O[C@H]1[C@H](O)[C@@H](O)[C@H](O)[C@@H](O)[C@H]1O` [myo-inositol], which insulin levels ([1]; time 0) is on record?
Its insulin levels is 7.6+1.

And the insulin levels ([1]; time 60')?
The insulin levels was 57.5±7.13.

And the insulin levels ([1]; time 90')?
Its insulin levels is 48.4±4.81.

What about the insulin levels ([1]; time 120') of the same molecule?
The insulin levels was 40.7±5.57.

And the insulin levels ([1]; time 180')?
Its insulin levels is 34±4.89.

What about the blood glucose levels ([2]; time 0) of the same molecule?
Its blood glucose levels is 90±4.71.

And the blood glucose levels ([2]; time 30')?
Its blood glucose levels is 130.8±6.56.

And the blood glucose levels ([2]; time 90')?
Its blood glucose levels is 107.2±10.25.

What about the blood glucose levels ([2]; time 120') of the same molecule?
Its blood glucose levels is 98±6.92.

What about the blood glucose levels ([2]; time 180') of the same molecule?
The blood glucose levels was 91.1±6.15.

What about the “frequency of the period” value [3] of the same molecule?
Its value is 38 to 42 days.

And the plasma progesterone ([4]; 22nd day of the period during the 3rd month of treatment)?
The plasma progesterone was 4.2 ± 0.6 ng/mL.

And the plasma progesterone [4, 6]?
Its plasma progesterone is 2.2 ± 0.2 ng/mL.

What about the body mass index ([5]; at the 3rd month of treatment) of the same molecule?
Its body mass index is 25 ± 1.3.

And the body mass index [5, 6]?
Its body mass index is 27 ± 0.6.
